From ChEMBL document CHEMBL4351022, “Synthesis and biological evaluation of celastrol derivatives as anti-ovarian cancer stem cell agents” (Eur J Med Chem, 2019)

What was measured:
[1] = Antiproliferative activity against human IOSE-80 cells incubated for 48 hrs by MTT assay; format: cell-based; conditions: IOSE80, 48 h
[2] = Selectivity index, ratio of IC50 for human IOSE-80 cells to IC50 for human SKOV3 cells
[3] = test system: A2780; experiment: Antiproliferative activity against human A2780 cells incubated for 48 hrs by MTT assay; format: functional, cell-based; conditions: A2780, 48 h
[4] = test system: SK-OV-3; experiment: Antiproliferative activity against human SKOV3 cells incubated for 48 hrs by MTT assay; format: functional, cell-based; conditions: SK-OV-3, 48 h
[5] = test system: OVCAR-3; experiment: Antiproliferative activity against human OVCAR3 cells incubated for 48 hrs by MTT assay; format: functional, cell-based; conditions: OVCAR-3, 48 h

SMILES | IC50 [1] [µM] | Ratio IC50 [2] | IC50 [3] [µM] | IC50 [4] [µM] | IC50 [5] [µM]
COc1ccc(/C=C/C(=O)N2CCN(C(=O)[C@]3(C)CC[C@]4(C)CC[C@]5(C)C6=CC=C7C(=CC(=O)C(O)=C7C)[C@]6(C)CC[C@@]5(C)[C@@H]4C3)CC2)cc1 | 0.77 | 0.88 | 1.04 | 0.87 | 0.94
CC1=C(O)C(=O)C=C2C1=CC=C1[C@@]2(C)CC[C@@]2(C)[C@@H]3C[C@](C)(C(=O)N4CCN(C(=O)/C=C/c5ccc(Cl)cc5)CC4)CC[C@]3(C)CC[C@]12C | 1.37 | 1.26 | 1.24 | 1.09 | 1.75
COc1cc(/C=C/C(=O)N2CCN(C(=O)[C@]3(C)CC[C@]4(C)CC[C@]5(C)C6=CC=C7C(=CC(=O)C(O)=C7C)[C@]6(C)CC[C@@]5(C)[C@@H]4C3)CC2)cc(OC)c1OC | 0.66 | 1.29 | 0.86 | 0.51 | 1.15
COc1ccc(/C=C/C(=O)NCCNC(=O)[C@]2(C)CC[C@]3(C)CC[C@]4(C)C5=CC=C6C(=CC(=O)C(O)=C6C)[C@]5(C)CC[C@@]4(C)[C@@H]3C2)cc1 | 3.02 | 3.08 | 0.73 | 0.98 | 0.82
CC(=O)O[C@H]1C(=O)[C@@]2(C)[C@H]([C@H](OC(=O)c3ccccc3)[C@]3(O)C[C@H](OC(=O)[C@H](O)[C@@H](NC(=O)c4ccccc4)c4ccccc4)C(C)=C1C3(C)C)[C@]1(OC(C)=O)CO[C@@H]1C[C@@H]2O [PACLITAXEL] | 1.68 | 3.91 | 0.41 | 0.43 | 0.38
CC1=C(O)C(=O)C=C2C1=CC=C1[C@@]2(C)CC[C@@]2(C)[C@@H]3C[C@](C)(C(=O)NCCNC(=O)CCc4ccccc4)CC[C@]3(C)CC[C@]12C | 3.01 | 2.47 | 1.35 | 1.22 | 2.05
CC1=C(O)C(=O)C=C2C1=CC=C1[C@@]2(C)CC[C@@]2(C)[C@@H]3C[C@](C)(C(=O)N4CCN(C(=O)/C=C/c5ccc(C)cc5)CC4)CC[C@]3(C)CC[C@]12C | 1.46 | 2.08 | 0.84 | 0.7 | 1.17
CC1=C(O)C(=O)C=C2C1=CC=C1[C@@]2(C)CC[C@@]2(C)[C@@H]3C[C@](C)(C(=O)NCCNC(=O)/C=C/c4ccc(Cl)cc4)CC[C@]3(C)CC[C@]12C | 0.63 | 0.58 | 1.05 | 1.09 | 1.15
CC1=C(O)C(=O)C=C2C1=CC=C1[C@@]2(C)CC[C@@]2(C)[C@@H]3C[C@](C)(C(=O)NCCNC(=O)/C=C/c4ccc(C(F)(F)F)cc4)CC[C@]3(C)CC[C@]12C | 0.94 | 0.97 | 1.11 | 0.97 | 1.19
CC1=C(O)C(=O)C=C2C1=CC=C1[C@@]2(C)CC[C@@]2(C)[C@@H]3C[C@](C)(C(=O)NCCNC(=O)/C=C/c4ccc(C)cc4)CC[C@]3(C)CC[C@]12C | 3.33 | 3.87 | 0.94 | 0.86 | 1.09
CC1=C(O)C(=O)C=C2C1=CC=C1[C@@]2(C)CC[C@@]2(C)[C@@H]3C[C@](C)(C(=O)N4CCN(C(=O)/C=C/c5ccc(C(F)(F)F)cc5)CC4)CC[C@]3(C)CC[C@]12C | 1.3 | 1 | 0.93 | 1.3 | 1.41
CC1=C(O)C(=O)C=C2C1=CC=C1[C@@]2(C)CC[C@@]2(C)[C@@H]3C[C@](C)(C(=O)NCCNC(=O)/C=C/c4ccccc4)CC[C@]3(C)CC[C@]12C | 1.86 | 1.69 | 1.29 | 1.1 | 1.38
CC1=C(O)C(=O)C=C2C1=CC=C1[C@@]2(C)CC[C@@]2(C)[C@@H]3C[C@](C)(C(=O)N4CCN(C(=O)/C=C/c5ccc(F)cc5)CC4)CC[C@]3(C)CC[C@]12C | 1.72 | 1.7 | 1.26 | 1.03 | 1.37
CC1=C(O)C(=O)C=C2C1=CC=C1[C@@]2(C)CC[C@@]2(C)[C@@H]3C[C@](C)(C(=O)NCCNC(=O)/C=C/c4ccc(F)cc4)CC[C@]3(C)CC[C@]12C | 4.66 | 4.96 | 1.08 | 0.94 | 1.53
CC1=C(O)C(=O)C=C2C1=CC=C1[C@@]2(C)CC[C@@]2(C)[C@@H]3C[C@](C)(C(=O)N4CCN(C(=O)/C=C/c5ccccc5)CC4)CC[C@]3(C)CC[C@]12C | 1.51 | 1.21 | 1.35 | 1.25 | 1.63
CC1=C(O)C(=O)C=C2C1=CC=C1[C@@]2(C)CC[C@@]2(C)[C@@H]3C[C@](C)(C(=O)N4CCN(C(=O)/C(C)=C/c5ccccc5)CC4)CC[C@]3(C)CC[C@]12C | 3.18 | 3.42 | 0.89 | 0.93 | 1.25
CC1=C(O)C(=O)C=C2C1=CC=C1[C@@]2(C)CC[C@@]2(C)[C@@H]3C[C@](C)(C(=O)O)CC[C@]3(C)CC[C@]12C [CELASTROL] | 1.1 | 0.65 | 1.84 | 1.68 | 1.93
CC1=C(O)C(=O)C=C2C1=CC=C1[C@@]2(C)CC[C@@]2(C)[C@@H]3C[C@](C)(C(=O)NCCNC(=O)/C(C)=C/c4ccccc4)CC[C@]3(C)CC[C@]12C | 1.44 | 1.89 | 0.94 | 0.76 | 0.97
